# Source: patent US20160193216A1 (Nimbus Iris, Inc., priority 2012, published 2016)
# Biological target: T1, IRAK4 (Homo sapiens, UniProt Q9NWZ3)
# T1 sequence (Q9NWZ3 1-460): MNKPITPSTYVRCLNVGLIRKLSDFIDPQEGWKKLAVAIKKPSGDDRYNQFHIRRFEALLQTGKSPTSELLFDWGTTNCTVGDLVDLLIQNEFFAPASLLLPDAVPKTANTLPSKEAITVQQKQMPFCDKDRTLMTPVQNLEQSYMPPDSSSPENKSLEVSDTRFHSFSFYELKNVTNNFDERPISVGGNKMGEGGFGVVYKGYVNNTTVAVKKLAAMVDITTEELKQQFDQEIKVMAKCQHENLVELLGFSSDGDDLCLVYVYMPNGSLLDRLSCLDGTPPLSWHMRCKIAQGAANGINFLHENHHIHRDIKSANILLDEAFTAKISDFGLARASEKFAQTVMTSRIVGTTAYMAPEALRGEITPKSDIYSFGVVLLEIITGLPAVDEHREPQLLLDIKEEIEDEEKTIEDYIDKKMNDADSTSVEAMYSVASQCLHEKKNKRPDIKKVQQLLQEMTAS
# Assay: IRAK-4 activity inhibition assay (Caliper)
# Format: biochemical
# Details: 37 μM ATP, 3.5 nM IRAK4
# Description: A 1× kinase base buffer was prepared from 50 mM HEPES, pH 7.5 and 0.0015% Brij-35. A stop buffer was prepared from 100 mM HEPES, pH 7.5, 0.015% Brij-35, 0.2% Coating Reagent #3, and 50 mM EDTA.
# Test compound was diluted to 50× of the final desired highest inhibitor concentration in reaction by 100% DMSO. 100 μl of this compound dilution was transferred to a well in a 96-well plate.
# Test compound was serially diluted by transferring 30 μl to 60 μl of 100% DMSO in the next well and so forth for a total of 10 concentrations. 100 μl of 100% DMSO was added to two empty wells for no compound control and no enzyme control in the same 96-well plate.
# A new 96-well plate was marked as intermediate plate. 5 μl of compound serial dilution was transferred from source plate to the corresponding wells of the intermediate plate. 45 μl of 1× kinase base buffer (KB buffer) was added to each well of the intermediate plate. The intermediate plate was placed for 10 min on a shaker.
# 5 μl of each well was transferred from the 96-well intermediate plate to a 384-well plate in duplicates. […] A2 of the 96-well plate is transferred to A3 and A4 of the 384-well plate, and so on.
# IRAK4 and DTT in 1× kinase base buffer was added.
# Assay plate already contained 5 μl of compound in 10% DMSO. Added 10 μl of 2.5× enzyme solution to each well of the 384-well assay plate, except no enzyme control wells. […] Added 10 μl of 1× kinase base buffer to no enzyme control wells in the assay plate. Incubated at room temperature for 10 min.
# Added 10 μl of 2.5× peptide solution to each well of the 384-well assay plate. […] Incubated at 28° C. for 40 minutes. Added 25 μl of stop buffer to stop reaction. Collected data on Caliper.
# Copied conversion % data from Caliper program. Converted conversion % values to percent inhibition values. Percent inhibition=(max−conversion %)/(max−min)*100, where “max” means the conversion % of DMSO control and “min” means the conversion % of no enzyme control.
# The compound numbers correspond to the compound numbers in Table 1. […] “NA” stands for “not assayed.”
row,Compound,IC50
1,"CN(C)[C@H]1CC[C@H](Oc2ncnc3sc4c(c23)CN(C(=O)CC2CC2)CC4)CC1 [Compound I-170, 2-cyclopropyl-1-(3-[[4-(dimethylamino)cyclohexyl]oxy]-8-thia-4,6,12-triazatricyclo[7.4.0.0̂[2,7]]trideca-1(9),2(7),3,5-tetraen-12-yl)ethan-1-one]",5 to 20 µM
2,"CN[C@H]1CC[C@H](Oc2ncnc3sc4c(c23)CN(C(C)=O)CC4)CC1 [Compound I-202, 1-(3-[[4-(methylamino)cyclohexyl]oxy]-8-thia-4,6,12-triazatricyclo[7.4.0.0[2,7]]trideca-1 (9),2,4,6-tetraen-12-yl)ethan-1-one]",5 to 20 µM
3,"CN(C)[C@H]1CC[C@H](Oc2ncnc3sc4c(c23)[C@@H](C[C@@H](O)C(N)=O)CC4)CC1 [Compound I-75, (2R)-3-[(3R)-12-[[4-(dimethylamino)cyclohexyl]oxy]-7-thia-9,11-diazatricyclo[6.4.0.0̂[2,6]]dodeca-1(8),2(6),9,11-tetraen-3-yl]-2-hydroxypropanamide]",< 5 µM
4,"CN(C)[C@H]1CC[C@H](Oc2ncnc3sc4c(c23)CN(C(=O)CCO)CC4)CC1 [Compound I-195, 1-(3-[[4-(dimethylamino)cyclohexyl]oxy]-8-thia-4,6, 12-triazatricyclo[7.4.0.0[2,7]]trideca-1(9),2,4,6-tetraen-12-yl)-3-hydroxypropan-1-one]",5 to 20 µM
5,"CC[C@@H](O)C[C@H]1CCc2sc3ncnc(O[C@H]4CC[C@](CC)(N(C)C)CC4)c3c21 [Compound I-101, (2R)-1-[(3R)-12-[[4-(dimethylamino)-4-ethylcyclohexyl]oxy]-7-thia-9,11-diazatricyclo[6.4.0.0[2,6]]dodeca-1(8),2(6),9,11-tetraen-3-yl]butan-2-ol]",< 5 µM
6,"CC[C@H](O)C[C@H]1CCc2sc3ncnc(O[C@H]4CC[C@H](N5CCOCC5)CC4)c3c21 [Compound I-64, (S)-1-((R)-4-(((1r,4R)-4-morpholinocyclohexyl)oxy)-6,7-dihydro-5H-cyclopenta[4,5]thieno[2,3-d]pyrimidin-5-yl)butan-2-ol]",< 5 µM
7,"CN(C)[C@H]1CC[C@H](Oc2ncnc3sc4c(c23)[C@@H](CO)CC4)CC1 [Compound I-19, ((R)-4-(((1r,4R)-4-(dimethylamino)cyclohexyl)oxy)-6,7-dihydro-5H-cyclopenta[4,5]thieno[2,3-d]pyrimidin-5-yl)methanol]",< 5 µM
8,"CNC(=O)N1Cc2sc3ncnc(O[C@H]4CC[C@H](N5CCOCC5)CC4)c3c2C1 [Compound I-200, N-methyl-12-[[4-(morpholin-4-yl)cyclohexyl]oxy]-7-thia-4,9, 11-triazatricyclo[6.4.0.0[2,6]]dodeca-1(8),9, 11-triene-4-carboxamide]",< 5 µM
9,"NC(=O)C[C@H]1CCc2sc3ncnc(O[C@H]4CC[C@@H](N5CCNC(=O)C5)CC4)c3c21 [Compound I-157, 2-((R)-4-(((1s,4S)-4-(3-oxopiperazin-1-yl)cyclohexyl)oxy)-6,7-dihydro-5H-cyclopenta[4,5]thieno[2,3-d]pyrimidin-5-yl)acetamide]",< 5 µM
10,"NC(=O)[C@H](O)C[C@H]1CCc2sc3ncnc(O[C@H]4CC[C@H](N5CCCCC5)CC4)c3c21 [Compound I-218, (R)-2-hydroxy-3-((R)-4-(((1r,4R)-4-(piperidin-1-yl)cyclohexyl)oxy)-6,7-dihydro-5H-cyclopenta[4,5]thieno[2,3-d]pyrimidin-5-yl)propanamide]",< 5 µM
11,"NC(=O)[C@H](O)C[C@H]1CCc2sc3ncnc(O[C@H]4CC[C@H](N)CC4)c3c21 [Compound I-138, (R)-3-((R)-4-(((1 r,4R)-4-aminocyclohexyl)oxy)-6,7-dihydro-5H-cyclopenta[4,5]thieno[2,3-d]pyrimidin-5-yl)-2-hydroxypropanamide]",< 5 µM
12,COC(=O)CC1CCc2sc3ncnc(N[C@H]4CC[C@H](N(C)C)CC4)c3c21 (stereo partly shown) [Compound I-11],5 to 20 µM

# Next, values leading:
row,IC50,Compound
1,< 5 µM,"C#CCOC[C@@H]1CCc2sc3ncnc(O[C@H]4CC[C@H](N(C)C)CC4)c3c21 [Compound I-48, N,N-dimethyl-4-[[(3R)-3-[(prop-2-yn-1-yloxy)methyl]-7-thia-9,11-diazatricyclo[6.4.0.0[2,6]]dodeca-1(8),2(6),9,11-tetraen-12-yl]oxy]cyclohexan-1-amine]"
2,< 5 µM,"OCC[C@@H]1CCc2sc3ncnc(O[C@H]4CC[C@H](N5CCOCC5)CC4)c3c2C1 [Compound I-145, 2-((R)-4-(((1r,4R)-4-morpholinocyclohexyl)oxy)-5,6,7,8-tetrahydrobenzo[4,5]thieno[2,3-d]pyrimidin-6-yl)ethanol]"
3,< 5 µM,"O=C(O)[C@H]1CCc2sc3ncnc(O[C@H]4CC[C@H](N5CCOCC5)CC4)c3c2C1 [Compound I-234, (12S)-3-[[(1r,4r)-4-(morpholin-4-yl)cyclohexyl]oxy]-8-thia-4,6-diazatricyclo[7.4.0.0[2,7]]trideca-1(9),2(7),3,5-tetraene-12-carboxylic acid]"
4,5 to 20 µM,"C=C[C@H](O)C[C@H]1CCc2sc3ncnc(O[C@H]4CC[C@](CC)(N(C)C)CC4)c3c21 [Compound I-124, (R)-1-((R)-4-(((1r,4R)-4-(dimethylamino)-4-ethylcyclohexyl)oxy)-6,7-dihydro-5H-cyclopenta[4,5]thieno[2,3-d]pyrimidin-5-yl)but-3-en-2-ol]"
5,< 5 µM,"O=S(=O)(CCO)N1CCc2sc3ncnc(N[C@H]4CC[C@H](N5CCOCC5)CC4)c3c2C1 [Compound I-185, 2-(3-[[4-(morpholin-4-yl)cyclohexyl]amino]-8-thia-4,6,12-triazatricyclo[7.4.0.0[2,7]]trideca-1(9),2(7),3,5-tetraene-12-sulfonyl)ethan-1-ol]"
6,5 to 20 µM,"CC(=O)N1CCc2sc3ncnc(N[C@H]4CC[C@H](N(C)C)CC4)c3c2C1 [Compound I-173, 1-(3-[[4-(dimethylamino)cyclohexyl]amino]-8-thia-4,6,12-triazatricyclo[7.4.0.0-[2,7]]trideca-1(9),2(7),5-trien-12-yl)ethan-1-one]"
7,< 5 µM,C[C@@H](O)C[C@H]1CCc2sc3ncnc(N[C@H]4CC[C@H](N(C)C)CC4)c3c21 [Compound I-53]
8,< 5 µM,"CN(C)[C@H]1CC[C@H](Oc2ncnc3sc4c(c23)C[C@H](CC(N)=O)CC4)CC1 [Compound I-113, 2-[(12R)-3-[[4-(dimethylamino)cyclohexyl]oxy]-8-thia-4,6-diazatricyclo[7.4.0.0[2,7]]trideca-1(9),2(7),3,5-tetraen-12-yl]acetamide]"
9,< 5 µM,"CC[C@H](O)C[C@H]1CCc2sc3ncnc(O[C@H]4CC[C@H](N(C)CC(=O)N5CCCC5)CC4)c3c21 [Compound I-72, 2-(((1R,4r)-4-(((R)-5-((S)-2-hydroxybutyl)-6,7-dihydro-5H-cyclopenta[4,5]thieno[2,3-d]pyrimidin-4-yl)oxy)cyclohexyl)(methyl)amino)-1-(pyrrolidin-1-yl)ethanone]"
10,< 5 µM,"CCC(O)C[C@@H]1CCc2sc3ncnc(O[C@H]4CC[C@H](N5CCOCC5)CC4)c3c2C1 (stereo partly drawn) [Compound I-183, 1-((R)-4-(((1r,4R)-4-morpholinocyclohexyl)oxy)-5,6,7,8-tetrahydrobenzo[4,5]thieno[2,3-d]pyrimidin-6-yl)butan-2-ol]"
11,5 to 20 µM,"CC(=O)N1CCc2sc3ncnc(O[C@H]4CC[C@H](N5CCOCC5)CC4)c3c2C1 [Compound I-171, 1-(3-[[4-(morpholin-4-yl)cyclohexyl]oxy]-8-thia-4,6,12-triazatricyclo[7.4.0.0[2,7]]trideca-1(9),2(7),3,5-tetraen-12-yl)ethan-1-one]"
12,5 to 20 µM,"CCNC(=O)CC1CCc2sc3ncnc(N[C@H]4CC[C@H](N(C)C)CC4)c3c21 (stereo partly shown) [Compound I-23, 2-(12-[[4-(dimethylamino)cyclohexyl]amino]-7-thia-9,11-diazatricyclo[6.4.0.0̂[2,6]]dodeca-1(8),2(6),9,11-tetraen-3-yl)-N-ethylacetamide]"
13,< 5 µM,"CC[C@@H](C[C@H]1CCc2sc3ncnc(N[C@H]4CC[C@H](N(C)C)CC4)c3c21)OC [Compound I-148, (1r,4R)-N1-((R)-5-((S)-2-methoxybutyl)-6,7-dihydro-5H-cyclopenta[4,5]thieno[2,3-d]pyrimidin-4-yl)-N4,N4-dimethylcyclohexane-1,4-diamine]"
